# Experimental data taken from patent publication US6355799B1, “Substituted benzene compounds, process for their preparation, and herbicidal and defoliant compositions containing them” (ISK Americas Incorporated, priority 1997, dated 2002).
# Key:
# Assay type in all cases: in vivo
# [1] = tested on: redroot pigweed (Amaranthus retroflexus, AMARE); assay: Pre-emerge test, greenhouse herbicide activity screening; settings: pre-emerge, rated 14 days after application, 0 = no damage, 100 = complete death
# Method in brief: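 Plants grown in 10 cm pots of sandy loam mix received acetone-dissolved compounds through a moving flat-fan nozzle. Doses ranged from 15 to 1000 g ai/ha. Pre-emerge pots were seeded one day earlier, post-emerge pots 8–21 days earlier. Fourteen days on, each pot was graded 0–100 for damage.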
# [2] = tested on: field corn (Zea mays L., var. Dekalb 535, CORN); assay: Post-emerge test, crop safety; settings: phytotoxicity rating 0-100 (0 no damage, 100 complete death), 14 days after application
# Method in brief: (§1)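 Compounds in acetone were track-sprayed at 187 l/ha, 15–1000 g ai/ha, onto sandy loam pots. Pre-emerge seeds were sown one day before spraying, with surface watering afterwards. Post-emerge plants were at the 2–3 leaf stage and sprayed with 0.25% v/v non-ionic surfactant. Injury was rated 0–100 at 14 days.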
# [3] = tested on: upland rice (Oryza sp., var. Tebonnet, RICE); assay: Post-emerge test, crop safety; settings: phytotoxicity rating 0-100 (0 no damage, 100 complete death), 14 days after application
# Method in brief: as §1
# [4] = tested on: lambsquarters (Chenopodium album, CHEAL); assay: Pre-emerge test, greenhouse herbicide activity screening; settings: pre-emerge, rated 14 days after application, 0 = no damage, 100 = complete death
# Method in brief: as §1
# [5] = tested on: green foxtail (Setaria viridis, SETVI); assay: as above; settings: pre-emerge, rated 14 days after application, 0 = no damage, 100 = complete death
# Method in brief: as §1
# [6] = tested on: large crabgrass (Digitaria sanguinalis, DIGSA); assay: as above; settings: pre-emerge, rated 14 days after application, 0 = no damage, 100 = complete death
# Method in brief: as §1
# [7] = tested on: johnsongrass (Sorghum halepense, SORHA); assay: as above; settings: pre-emerge, rated 14 days after application, 0 = no damage, 100 = complete death
# Method in brief: as §1
# [8] = tested on: ivyleaf morningglory (Ipomoea hederacea, IPOHE); assay: as above; settings: pre-emerge, rated 14 days after application, 0 = no damage, 100 = complete death
# Method in brief: as §1
# [9] = tested on: sicklepod (Cassia obtusifolia, CASOB); assay: as above; settings: pre-emerge, rated 14 days after application, 0 = no damage, 100 = complete death
# Method in brief: as §1
# [10] = tested on: velvetleaf (Abutilon theophrasti, ABUTH); assay: as above; settings: pre-emerge, rated 14 days after application, 0 = no damage, 100 = complete death
# Method in brief: as §1
# [11] = tested on: barnyardgrass (Echinochloa crus-galli, ECHCG); assay: as above; settings: pre-emerge, rated 14 days after application, 0 = no damage, 100 = complete death
# Method in brief: as §1
# [12] = tested on: lambsquarters (Chenopodium album, CHEAL); assay: Post-emerge test, greenhouse herbicide activity screening; settings: phytotoxicity rating 0-100 (0 no damage, 100 complete death), 14 days after application
# Method in brief: (§2)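 Each test used a mechanized track sprayer delivering 187 l/ha of acetone solution at 15–1000 g ai/ha. Post-emerge foliage at 2–3 leaves was treated with added 0.25% v/v non-ionic surfactant and bottom-watered only. Injury was assessed on day 14, where 100 means total kill.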
# [13] = tested on: green foxtail (Setaria viridis, SETVI); assay: as above; settings: phytotoxicity rating 0-100 (0 no damage, 100 complete death), 14 days after application
# Method in brief: as §2
# [14] = tested on: large crabgrass (Digitaria sanguinalis, DIGSA); assay: as above; settings: phytotoxicity rating 0-100 (0 no damage, 100 complete death), 14 days after application
# Method in brief: as §2
# [15] = tested on: redroot pigweed (Amaranthus retroflexus, AMARE); assay: as above; settings: phytotoxicity rating 0-100 (0 no damage, 100 complete death), 14 days after application
# Method in brief: as §2
# [16] = tested on: johnsongrass (Sorghum halepense, SORHA); assay: as above; settings: phytotoxicity rating 0-100 (0 no damage, 100 complete death), 14 days after application
# Method in brief: as §2
# [17] = tested on: ivyleaf morningglory (Ipomoea hederacea, IPOHE); assay: as above; settings: phytotoxicity rating 0-100 (0 no damage, 100 complete death), 14 days after application
# Method in brief: as §2
# [18] = tested on: sicklepod (Cassia obtusifolia, CASOB); assay: as above; settings: phytotoxicity rating 0-100 (0 no damage, 100 complete death), 14 days after application
# Method in brief: as §2
# [19] = tested on: velvetleaf (Abutilon theophrasti, ABUTH); assay: as above; settings: phytotoxicity rating 0-100 (0 no damage, 100 complete death), 14 days after application
# Method in brief: as §2
# [20] = tested on: barnyardgrass (Echinochloa crus-galli, ECHCG); assay: as above; settings: phytotoxicity rating 0-100 (0 no damage, 100 complete death), 14 days after application
# Method in brief: as §2
# [21] = tested on: field corn (Zea mays L., var. Dekalb 535, CORN); assay: Pre-emerge test, crop safety; settings: pre-emerge, rated 14 days after application, 0 = no damage, 100 = complete death
# Method in brief: (§3)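 Fourteen days after spraying, crop and weed injury was graded visually from 0, no effect, to 100, every plant dead. Test substances were dissolved in acetone and applied at 15–1000 g ai/ha with a flat-fan nozzle. Application was either pre-emergence, one day after sowing, or post-emergence at the 2–3 leaf stage.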
# [22] = tested on: upland rice (Oryza sp., var. Tebonnet, RICE); assay: Pre-emerge test, crop safety; settings: pre-emerge, rated 14 days after application, 0 = no damage, 100 = complete death
# Method in brief: as §3
smiles,measurement,setting,value
COc1c(Cl)cc(F)c(-n2c(=O)cc(C(F)(F)F)n(C)c2=O)c1NC(=O)C(C)(C)C [2-3],"Pre-emerge Herbicidal Activity AMARE (phytotoxicity rating, scale 0-100)",[1]; 63 g ai/ha,100
same,"Pre-emerge Herbicidal Activity AMARE (phytotoxicity rating, scale 0-100)",[1]; 250 g ai/ha,100
same,Post-emerge Herbicidal Activity CORN (crop damage),[2]; 63 g ai/ha,0
same,Post-emerge Herbicidal Activity CORN (crop damage),[2]; 250 g ai/ha,10
same,Post-emerge Herbicidal Activity RICE (crop damage),[3]; 63 g ai/ha,0
same,Post-emerge Herbicidal Activity RICE (crop damage),[3]; 250 g ai/ha,40
same,"Pre-emerge Herbicidal Activity CHEAL (phytotoxicity rating, scale 0-100)",[4]; 63 g ai/ha,100
same,"Pre-emerge Herbicidal Activity CHEAL (phytotoxicity rating, scale 0-100)",[4]; 250 g ai/ha,100
same,"Pre-emerge Herbicidal Activity SETVI (phytotoxicity rating, scale 0-100)",[5]; 63 g ai/ha,90
same,"Pre-emerge Herbicidal Activity SETVI (phytotoxicity rating, scale 0-100)",[5]; 250 g ai/ha,100
same,"Pre-emerge Herbicidal Activity DIGSA (phytotoxicity rating, scale 0-100)",[6]; 63 g ai/ha,30
same,"Pre-emerge Herbicidal Activity DIGSA (phytotoxicity rating, scale 0-100)",[6]; 250 g ai/ha,60
same,"Pre-emerge Herbicidal Activity SORHA (phytotoxicity rating, scale 0-100)",[7]; 63 g ai/ha,10
same,"Pre-emerge Herbicidal Activity SORHA (phytotoxicity rating, scale 0-100)",[7]; 250 g ai/ha,30
same,"Pre-emerge Herbicidal Activity IPOHE (phytotoxicity rating, scale 0-100)",[8]; 63 g ai/ha,60
same,"Pre-emerge Herbicidal Activity IPOHE (phytotoxicity rating, scale 0-100)",[8]; 250 g ai/ha,100
same,"Pre-emerge Herbicidal Activity CASOB (phytotoxicity rating, scale 0-100)",[9]; 63 g ai/ha,60
same,"Pre-emerge Herbicidal Activity CASOB (phytotoxicity rating, scale 0-100)",[9]; 250 g ai/ha,100
same,"Pre-emerge Herbicidal Activity ABUTH (phytotoxicity rating, scale 0-100)",[10]; 63 g ai/ha,100
same,"Pre-emerge Herbicidal Activity ABUTH (phytotoxicity rating, scale 0-100)",[10]; 250 g ai/ha,100
same,"Pre-emerge Herbicidal Activity ECHCG (phytotoxicity rating, scale 0-100)",[11]; 63 g ai/ha,0
same,"Pre-emerge Herbicidal Activity ECHCG (phytotoxicity rating, scale 0-100)",[11]; 250 g ai/ha,40
same,Post-emerge Herbicidal Activity CHEAL,[12]; 63 g ai/ha,30
same,Post-emerge Herbicidal Activity CHEAL,[12]; 250 g ai/ha,30
same,Post-emerge Herbicidal Activity SETVI,[13]; 63 g ai/ha,0
same,Post-emerge Herbicidal Activity SETVI,[13]; 250 g ai/ha,0
same,Post-emerge Herbicidal Activity DIGSA,[14]; 63 g ai/ha,0
same,Post-emerge Herbicidal Activity DIGSA,[14]; 250 g ai/ha,0
same,Post-emerge Herbicidal Activity AMARE,[15]; 63 g ai/ha,10
same,Post-emerge Herbicidal Activity AMARE,[15]; 250 g ai/ha,40
same,Post-emerge Herbicidal Activity SORHA,[16]; 63 g ai/ha,0
same,Post-emerge Herbicidal Activity SORHA,[16]; 250 g ai/ha,0
same,Post-emerge Herbicidal Activity IPOHE,[17]; 63 g ai/ha,60
same,Post-emerge Herbicidal Activity IPOHE,[17]; 250 g ai/ha,100
same,Post-emerge Herbicidal Activity CASOB,[18]; 63 g ai/ha,0
same,Post-emerge Herbicidal Activity CASOB,[18]; 250 g ai/ha,0
same,Post-emerge Herbicidal Activity ABUTH,[19]; 63 g ai/ha,80
same,Post-emerge Herbicidal Activity ABUTH,[19]; 250 g ai/ha,100
same,Post-emerge Herbicidal Activity ECHCG,[20]; 63 g ai/ha,0
same,Post-emerge Herbicidal Activity ECHCG,[20]; 250 g ai/ha,0
same,"Pre-emerge crop damage CORN (phytotoxicity rating, scale 0-100)",[21]; 63 g ai/ha,0
same,"Pre-emerge crop damage CORN (phytotoxicity rating, scale 0-100)",[21]; 250 g ai/ha,30
same,"Pre-emerge crop damage RICE (phytotoxicity rating, scale 0-100)",[22]; 63 g ai/ha,20
same,"Pre-emerge crop damage RICE (phytotoxicity rating, scale 0-100)",[22]; 250 g ai/ha,50
